Where two headings read alike, the source gives them in different places.
Key:
Assay type in all cases: in vivo
[1] = tested on: Plasmopara viticola (Vines); assay: Foliar fungal disease test on plants: Plasmopara viticola (Vines); conditions: one or two days before inoculation
Description: (§1) The compounds were tested against a variety of foliar fungal diseases of plants. The technique employed was as follows.
(§2) The plants were grown in John Innes Potting Compost (No 1 or 2) in 4 cm diameter minipots. The test compounds were formulated either by bead milling with aqueous DISPERSOL T or as a solution in acetone or acetone/ethanol which was diluted to the required concentration immediately before use. […] The sprays were applied to maximum retention and the root drenches to a final concentration equivalent to approximately 40 ppm a.i. in dry soil. TWEEN 20 was added to give a final concentration of 0.05% when the sprays were applied to cereals.
(§3) For most of the tests the compounds were applied to the soil (roots) or to the foliage (by spraying) one or two days before the plant was inoculated with the disease. An exception was the test on Erysiphe graminis in which the plants were inoculated 24 hours before treatment. Foliar pathogens were applied by spray as zoosporangial suspensions onto the leaves of test plants. After inoculation, the plants were put into an appropriate environment to allow infection to proceed and then incubated until the disease was ready for assessment. The period between inoculation and assessment varied from four to fourteen days according to the disease and environment.
(§4) The disease level present (i.e. leaf area covered by actively sporulating disease) on each of the treated plants was recorded using the following assessment scale:
(§5) Each assessment was then expressed as a percentage of the level of disease present on the untreated control plants. This calculated value is referred to as a POCO (Percentage of Control) value. An example of a typical calculation is as follows:
(§6) Disease level on untreated control=90
(§7) Disese level on treated plant=30 [formula]
(§8) This calculated POCO value is then rounded to the nearest of the values in the 9-point assessment scale shown above. In this particular example, the POCO value would be rounded to 30. If the calculated POCO falls exactly mid-way between two of the points, it is rounded to the lower of the two values.

[2] = tested on: Thanatephorus cucumeries (Rice); assay: Foliar fungal disease test on plants: Thanatephorus cucumeries (Rice); conditions: one or two days before inoculation
Description: as §1, §2, §3, §4, §5, §6, §7, §8

[3] = tested on: Erysiphe graminis tritici (Wheat); assay: Foliar fungal disease test on plants: Erysiphe graminis tritici (Wheat); conditions: 100 ppm a.i. foliar spray or root drench (approx. 40 ppm in dry soil); plants inoculated 24 hours before treatment
Description: as §1, §2, §3, §4, §5, §6, §7, §8

[4] = tested on: Pyricularia oryzae (Rice); conditions: one or two days before inoculation
[5] = tested on: Puccinia recondita (Wheat); assay: Foliar fungal disease test on plants: Puccinia recondita (Wheat)
Description: as §1
The plants were grown in John Innes Potting Compost (No 1 or 2) in 4 cm diameter minipots. The test compounds were formulated either by bead milling with aqueous DISPERSOL T or as a solution in acetone or acetone/ethanol which was diluted to the required concentration immediately before use. The formulations (100 ppm active ingredient) were sprayed on to the foliage or applied to the roots of the plants in the soil. The sprays were applied to maximum retention and the root drenches to a final concentration equivalent to approximately 40 ppm a.i. in dry soil. TWEEN 20 was added to give a final concentration of 0.05% when the sprays were applied to cereals.
[…] An exception was the test on Erysiphe graminis in which the plants were inoculated 24 hours before treatment. Foliar pathogens were applied by spray as zoosporangial suspensions onto the leaves of test plants. After inoculation, the plants were put into an appropriate environment to allow infection to proceed and then incubated until the disease was ready for assessment. The period between inoculation and assessment varied from four to fourteen days according to the disease and environment.
as §4, §5, §6, §7, §8

Septoria nodorum (Wheat) = assay: Foliar fungal disease test on plants: Septoria nodorum (Wheat); conditions: one or two days before inoculation
Description: as §1, §2, §3, §4, §5, §6, §7, §8

[6] = tested on: Venturia inaequalis (Apples); assay: Foliar fungal disease test on plants: Venturia inaequalis (Apples); conditions: one or two days before inoculation
Description: as §1, §2, §3, §4, §5, §6, §7, §8

[7] = tested on: Phytophthora infestans (Tomatoes); conditions: one or two days before inoculation
[8] = 100 ppm a.i. foliar spray or root drench (approx. 40 ppm in dry soil)
[9] = 100 ppm a.i. foliar spray or root drench (approx. 40 ppm in dry soil), one or two days before inoculation
[10] = 10 ppm foliar spray only, one or two days before inoculation
[11] = 100 ppm a.i. foliar spray or root drench, plants inoculated with Puccinia recondita 48 hours before treatment

Row | Structure (SMILES) | POCO (Percentage of Control) disease level, Plasmopara viticola (Vines) [1, 8] | POCO (Percentage of Control) disease level, Thanatephorus cucumeries (Rice) [2, 8] | POCO (Percentage of Control) disease level, Erysiphe graminis tritici (Wheat) [3] | POCO (Percentage of Control) disease level, Pyricularia oryzae (Rice) [4, 8] | POCO (Percentage of Control) disease level, Puccinia recondita (Wheat) [5, 9] | POCO (Percentage of Control) disease level, Septoria nodorum (Wheat) (Septoria nodorum (Wheat); [8]) | POCO (Percentage of Control) disease level, Plasmopara viticola (Vines) ([1]; 10 ppm foliar spray only) | POCO (Percentage of Control) disease level, Thanatephorus cucumeries (Rice) ([2]; 10 ppm foliar spray only) | POCO (Percentage of Control) disease level, Pyricularia oryzae (Rice) ([4]; 10 ppm foliar spray only) | POCO (Percentage of Control) disease level, Venturia inaequalis (Apples) ([6]; 10 ppm foliar spray only) | POCO (Percentage of Control) disease level, Phytophthora infestans (Tomatoes) ([7]; 10 ppm foliar spray only) | POCO (Percentage of Control) disease level, Puccinia recondita (Wheat) [5, 10] | POCO (Percentage of Control) disease level, Septoria nodorum (Wheat) (Septoria nodorum (Wheat); 10 ppm foliar spray only) | POCO (Percentage of Control) disease level, Phytophthora infestans (Tomatoes) [7, 8] | POCO (Percentage of Control) disease level, Venturia inaequalis (Apples) [6, 8] | POCO (Percentage of Control) disease level, Puccinia recondita (Wheat) [5, 11]
1 | COC=C(C(=O)OC)c1ccccc1OC(=O)NCc1ccccc1 [4 (17)] | 0 (0 = 0% disease present) | 0 (0 = 0% disease present) | 10 (10 = 5.1-10% disease present) | 5 (5 = 3.1-5% disease present) | 1 (1 = 0.1-1% disease present) | 60 (60 = 30.1-60% disease present) |  |  |  |  |  |  |  |  |  | 
2 | COC=C(C(=O)OC)c1ccccc1COC(=S)Nc1ccccc1 [5 (6)] |  |  |  |  |  |  | 90 (90 and 94 = 60.1-100% disease present) | 0 (0 = 0% disease present) | 60 (60 = 30.1-60% disease present) | 0 (0 = 0% disease present) | 90 (90 and 94 = 60.1-100% disease present) | 90 (90 and 94 = 60.1-100% disease present) | 90 (90 and 94 = 60.1-100% disease present) |  |  | 
3 | COC=C(C(=O)OC)c1ccccc1COC(=O)Nc1cccc(OC)c1 [7 (1)] | 60 (60 = 30.1-60% disease present) | 60 (60 = 30.1-60% disease present) | 5 (5 = 3.1-5% disease present) | 0 (0 = 0% disease present) | 10 (10 = 5.1-10% disease present) | 90 (90 and 94 = 60.1-100% disease present) |  |  |  |  |  |  |  | 90 (90 and 94 = 60.1-100% disease present) |  | 
4 | COC=C(C(=O)OC)c1ccccc1COC(=S)Nc1ccc([N+](=O)[O-])cc1 [9 (6)] | 90 (90 and 94 = 60.1-100% disease present) | 90 (90 and 94 = 60.1-100% disease present) | 90 (90 and 94 = 60.1-100% disease present) | 20 (20 and 24 = 10.1-20% disease present) | 90 (90 and 94 = 60.1-100% disease present) | 90 (90 and 94 = 60.1-100% disease present) |  |  |  |  |  |  |  |  |  | 
5 | COC=C(C(=O)OC)c1ccccc1COC(=S)Nc1ccc(Cl)cc1 [11 (6)] |  |  |  |  |  |  | 0 (0 = 0% disease present) | 90 (90 and 94 = 60.1-100% disease present) | 20 (20 and 24 = 10.1-20% disease present) |  |  | 20 (20 and 24 = 10.1-20% disease present) | 60 (60 = 30.1-60% disease present) |  |  | 
6 | COC=C(C(=O)OC)c1ccccc1COC(=O)Nc1ccccc1[N+](=O)[O-] [15 (1)] | 0 (0 = 0% disease present) |  |  | 5 (5 = 3.1-5% disease present) |  | 0 (0 = 0% disease present) |  |  |  |  |  |  |  | 3 (3 = 1.1-3% disease present) | 0 (0 = 0% disease present) | 90+ (90 and 94 = 60.1-100% disease present)
7 | COC=C(C(=O)OC)c1ccccc1COC(=O)N(C)c1ccccc1[N+](=O)[O-] [15 (2)] | 0 (0 = 0% disease present) |  |  | 0 (0 = 0% disease present) |  | 5 (5 = 3.1-5% disease present) |  |  |  |  |  |  |  | 60 (60 = 30.1-60% disease present) | 0 (0 = 0% disease present) | 0+ (0 = 0% disease present)
8 | COC=C(C(=O)OC)c1ccccc1COC(=S)Nc1ccccc1SC [21 (6)] | 0 (0 = 0% disease present) | 0 (0 = 0% disease present) | 3 (3 = 1.1-3% disease present) | 0 (0 = 0% disease present) | 0 (0 = 0% disease present) | 0 (0 = 0% disease present) |  |  |  |  |  |  |  |  |  | 
9 | COC=C(C(=O)OC)c1ccccc1COC(=O)N(C)c1cc(F)ccc1F [27 (2)] | 0 (0 = 0% disease present) | 0 (0 = 0% disease present) |  | 0 (0 = 0% disease present) |  | 0 (0 = 0% disease present) |  |  |  |  |  |  |  | 5 (5 = 3.1-5% disease present) | 0 (0 = 0% disease present) | 0+ (0 = 0% disease present)
10 | COC=C(C(=O)OC)c1ccccc1COC(=O)Nc1ccccc1C#N [29 (1)] | 20 (20 and 24 = 10.1-20% disease present) | 5 (5 = 3.1-5% disease present) | 5 (5 = 3.1-5% disease present) | 0 (0 = 0% disease present) |  | 60 (60 = 30.1-60% disease present) |  |  |  |  |  |  |  |  | 0 (0 = 0% disease present) | 30+ (30 = 20.1-30% disease present)
11 | COC=C(C(=O)OC)c1ccccc1COC(=O)N(C)c1ccccc1C#N [29 (2)] | 0 (0 = 0% disease present) | 30 (30 = 20.1-30% disease present) | 0 (0 = 0% disease present) | 0 (0 = 0% disease present) |  | 30 (30 = 20.1-30% disease present) |  |  |  |  |  |  |  |  | 0 (0 = 0% disease present) | 20+ (20 and 24 = 10.1-20% disease present)

From patent US6465457B1 (priority 1991, dated 2002)
